# Laboratory results: PubChem BioAssay (NCI)
#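 Growth conditions: 96-well plates. Treatment: test compound, 48 hours, 5 concentrations. Analysis: linear interpolation between bracketing concentrations; unreached endpoints set to highest concentration. TGI: total growth inhibition.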
# Key:
# Test in all cases: inhibition of tumour cell growth, NCI panel, 48 h
# 786-0 renal = system: 786-0 renal
# A498 renal = system: A498 renal
# A549 NSCLC = system: A549 NSCLC
# ACHN renal = system: ACHN renal
# CAKI-1 renal = system: CAKI-1 renal
# CCRF-CEM leukemia = system: CCRF-CEM leukemia
# COLO 205 colon = system: COLO 205 colon
# DLD-1 colon = system: DLD-1 colon
# DMS 114 small cell lung = system: DMS 114 small cell lung
# DMS 273 small cell lung = system: DMS 273 small cell lung
# EKVX NSCLC = system: EKVX NSCLC
# HCC-2998 colon = system: HCC-2998 colon
# HCT-116 colon = system: HCT-116 colon
# HCT-15 colon = system: HCT-15 colon
# HL-60(TB) leukemia = system: HL-60(TB) leukemia
# HOP-62 NSCLC = system: HOP-62 NSCLC
# HOP-92 NSCLC = system: HOP-92 NSCLC
# IGROV1 ovarian = system: IGROV1 ovarian
# K-562 leukemia = system: K-562 leukemia
# KM12 colon = system: KM12 colon
# KM20L2 colon = system: KM20L2 colon
# LOX IMVI melanoma = system: LOX IMVI melanoma
# LXFL 529 NSCLC = system: LXFL 529 NSCLC
# M14 melanoma = system: M14 melanoma
# M19-MEL melanoma = system: M19-MEL melanoma
# MALME-3M melanoma = system: MALME-3M melanoma
# MOLT-4 leukemia = system: MOLT-4 leukemia
# NCI-H226 lung = system: NCI-H226 lung
# NCI-H23 lung = system: NCI-H23 lung
# NCI-H460 lung = system: NCI-H460 lung
# NCI-H522 lung = system: NCI-H522 lung
# OVCAR-3 ovarian = system: OVCAR-3 ovarian
# OVCAR-4 ovarian = system: OVCAR-4 ovarian
# OVCAR-5 ovarian = system: OVCAR-5 ovarian
# OVCAR-8 ovarian = system: OVCAR-8 ovarian
# RPMI-8226 leukemia = system: RPMI-8226 leukemia
# SF-268 CNS = system: SF-268 CNS
# SF-539 CNS = system: SF-539 CNS
# SK-MEL-2 melanoma = system: SK-MEL-2 melanoma
# SK-MEL-28 melanoma = system: SK-MEL-28 melanoma
# SK-MEL-5 melanoma = system: SK-MEL-5 melanoma
# SN12C renal = system: SN12C renal
# SNB-19 CNS = system: SNB-19 CNS
# SNB-75 CNS = system: SNB-75 CNS
# SR leukemia = system: SR leukemia
# SW-620 colon = system: SW-620 colon
# TK-10 renal = system: TK-10 renal
# U251 CNS = system: U251 CNS
# UACC-257 melanoma = system: UACC-257 melanoma
# UACC-62 melanoma = system: UACC-62 melanoma
# UO-31 renal = system: UO-31 renal
# XF 498 CNS = system: XF 498 CNS
# HOP-18 NSCLC = system: HOP-18 NSCLC
# HT29 colon = system: HT29 colon
# RXF 393 renal = system: RXF 393 renal
# SF-295 CNS = system: SF-295 CNS
# SNB-78 CNS = system: SNB-78 CNS
smiles,measurement,setting,value
N#CC1=C(N)n2c(s/c(=C\c3ccc(Cl)cc3)c2=O)=C(c2nc3ccccc3[nH]2)C1c1ccc(Cl)cc1 (stereo not given),TGI,786-0 renal,4.96 µM
same,TGI,A498 renal,4.29 µM
same,TGI,A549 NSCLC,10.9 µM
same,TGI,ACHN renal,5.26 µM
same,TGI,CAKI-1 renal,10.7 µM
same,TGI,CCRF-CEM leukemia,4.23 µM
same,TGI,COLO 205 colon,6.38 µM
same,TGI,DLD-1 colon,15.4 µM
same,TGI,DMS 114 small cell lung,4.37 µM
same,TGI,DMS 273 small cell lung,6.23 µM
same,TGI,EKVX NSCLC,3.52 µM
same,TGI,HCC-2998 colon,1.7 µM
same,TGI,HCT-116 colon,3.61 µM
same,TGI,HCT-15 colon,4.2 µM
same,TGI,HL-60(TB) leukemia,6.45 µM
same,TGI,HOP-62 NSCLC,4.68 µM
same,TGI,HOP-92 NSCLC,0.954 µM
same,TGI,IGROV1 ovarian,9.71 µM
same,TGI,K-562 leukemia,4.94 µM
same,TGI,KM12 colon,3.06 µM
same,TGI,KM20L2 colon,6.06 µM
same,TGI,LOX IMVI melanoma,3.23 µM
same,TGI,LXFL 529 NSCLC,4.58 µM
same,TGI,M14 melanoma,11.5 µM
same,TGI,M19-MEL melanoma,9.15 µM
same,TGI,MALME-3M melanoma,4.74 µM
same,TGI,MOLT-4 leukemia,3.86 µM
same,TGI,NCI-H226 lung,3.46 µM
same,TGI,NCI-H23 lung,1.58 µM
same,TGI,NCI-H460 lung,8.03 µM
same,TGI,NCI-H522 lung,3.68 µM
same,TGI,OVCAR-3 ovarian,3.66 µM
same,TGI,OVCAR-4 ovarian,5.22 µM
same,TGI,OVCAR-5 ovarian,3.66 µM
same,TGI,OVCAR-8 ovarian,3.78 µM
same,TGI,RPMI-8226 leukemia,4.65 µM
same,TGI,SF-268 CNS,7.11 µM
same,TGI,SF-539 CNS,3.56 µM
same,TGI,SK-MEL-2 melanoma,4.21 µM
same,TGI,SK-MEL-28 melanoma,3.03 µM
same,TGI,SK-MEL-5 melanoma,11.3 µM
same,TGI,SN12C renal,4.6 µM
same,TGI,SNB-19 CNS,> 100 µM
same,TGI,SNB-75 CNS,17.8 µM
same,TGI,SR leukemia,5.85 µM
same,TGI,SW-620 colon,3.03 µM
same,TGI,TK-10 renal,2.62 µM
same,TGI,U251 CNS,2.89 µM
same,TGI,UACC-257 melanoma,7.84 µM
same,TGI,UACC-62 melanoma,2.92 µM
same,TGI,UO-31 renal,> 100 µM
same,TGI,XF 498 CNS,3.38 µM
COC(=O)N(C(=O)OC)C(C(=O)O)C(C)C (stereo not given),TGI,786-0 renal,> 100 µM
same,TGI,A549 NSCLC,> 100 µM
same,TGI,ACHN renal,> 100 µM
same,TGI,CAKI-1 renal,> 100 µM
same,TGI,COLO 205 colon,> 100 µM
same,TGI,DLD-1 colon,> 100 µM
same,TGI,DMS 114 small cell lung,> 100 µM
same,TGI,DMS 273 small cell lung,> 100 µM
same,TGI,EKVX NSCLC,> 100 µM
same,TGI,HCC-2998 colon,> 100 µM
same,TGI,HL-60(TB) leukemia,> 100 µM
same,TGI,HOP-18 NSCLC,> 100 µM
same,TGI,HOP-62 NSCLC,> 100 µM
same,TGI,HOP-92 NSCLC,> 100 µM
same,TGI,HT29 colon,> 100 µM
same,TGI,KM12 colon,> 100 µM
same,TGI,KM20L2 colon,> 100 µM
same,TGI,LOX IMVI melanoma,> 100 µM
same,TGI,LXFL 529 NSCLC,> 100 µM
same,TGI,M14 melanoma,> 100 µM
same,TGI,M19-MEL melanoma,> 100 µM
same,TGI,NCI-H226 lung,> 100 µM
same,TGI,NCI-H23 lung,> 100 µM
same,TGI,NCI-H460 lung,> 100 µM
same,TGI,NCI-H522 lung,> 100 µM
same,TGI,OVCAR-4 ovarian,> 100 µM
same,TGI,OVCAR-5 ovarian,> 100 µM
same,TGI,OVCAR-8 ovarian,> 100 µM
same,TGI,RXF 393 renal,> 100 µM
same,TGI,SF-268 CNS,> 100 µM
same,TGI,SF-295 CNS,> 100 µM
same,TGI,SF-539 CNS,> 100 µM
same,TGI,SK-MEL-2 melanoma,> 100 µM
same,TGI,SK-MEL-28 melanoma,> 100 µM
same,TGI,SN12C renal,> 100 µM
same,TGI,SNB-19 CNS,> 100 µM
same,TGI,SNB-75 CNS,> 100 µM
same,TGI,SNB-78 CNS,> 100 µM
same,TGI,SW-620 colon,> 100 µM
same,TGI,TK-10 renal,> 100 µM
same,TGI,U251 CNS,> 100 µM
same,TGI,UACC-257 melanoma,> 100 µM
same,TGI,UO-31 renal,> 100 µM
